The compounds below were run on AMPK (assay: AMPK enzyme activity assay (Delfia technology, AMARA peptide substrate)). Conditions: compound at 30 μM vs AMP at 200 μM.
Type: biochemical
Experimental: The following biological test allows the determination of the efficacy of compounds of formula (1) onto AMPK protein.
AMPK enzyme activities were assayed by using a Delfia technology. AMPK enzyme activities were carried out in microtiter plates in the presence of a synthetic peptide substrate (AMARAASAAALARRR, the “AMARA” peptide) and activators in serial dilutions. Reactions were initiated by the addition of AMPK. Enzyme activity was assayed by using an anti-phosphoserine antibody to measure the quantity of phosphate incorporated into the AMARAA.
No: Number of the molecule
Activity: Ratio between the % of control (basal activity) of compound of formula (1) at 30 μM and the % of control (basal activity) of AMP (natural substrate) at 200 μM.

Activity: Ratio between the % of control (basal activity) of compound of formula (1) at 30 μM and the % of control (basal activity) of AMP (natural substrate) at 200 μM | Compound
A (0%<A<50%) | CC1(c2ccccc2)C(=O)Nc2sc(Cl)c(-c3ccc4ccccc4c3O)c2C1=O (centres unmarked) [No 7, 2-chloro-3-(1-hydroxy-2-naphthyl)-5-methyl-5-phenyl-7H-thieno[2,3-b]pyridine-4,6-dione]
A (0%<A<50%) | CC1(c2ccccc2)C(=O)Nc2scc(-c3ccc4ccccc4c3O)c2C1=O (centres unmarked) [No 8, 3-(1-hydroxy-2-naphthyl)-5-methyl-5-phenyl-7H-thieno[2,3-b]pyridine-4,6-dione]
A (0%<A<50%) | O=C1Nc2scc(-c3ccccc3)c2C(=O)C1(c1ccccc1)c1ccccc1 [No 9, 3,5,5-triphenyl-7H-thieno[2,3-b]pyridine-4,6-dione]
A (0%<A<50%) | O=C1Nc2scc(-c3ccccc3)c2C(=O)C1(Cc1ccccc1)c1ccccc1 (centres unmarked) [No 10, 5-benzyl-3,5-diphenyl-7H-thieno[2,3-b]pyridine-4,6-dione]
A (0%<A<50%) | CCC1(c2ccccc2)C(=O)Nc2scc(-c3ccccc3)c2C1=O (centres unmarked) [No 11, 5-ethyl-3,5-diphenyl-7H-thieno[2,3-b]pyridine-4,6-dione]
A (0%<A<50%) | CC1(c2ccccc2)C(=O)Nc2scc(-c3ccc(F)c(F)c3O)c2C1=O (centres unmarked) [No 14, 3-(3,4-difluoro-2-hydroxy-phenyl)-5-methyl-5-phenyl-7H-thieno[2,3-b]pyridine-4,6-dione]
A (0%<A<50%) | CCc1ccc(-c2csc3c2C(=O)C(C)(c2ccccc2)C(=O)N3)c(OC)c1 (centres unmarked) [No 16, 3-(4-ethyl-2-methoxy-phenyl)-5-methyl-5-phenyl-7H-thieno[2,3-b]pyridine-4,6-dione]
A (0%<A<50%) | CC1(C)C(=O)Nc2scc(-c3ccccc3)c2C1=O [No 18, 5,5-dimethyl-3-phenyl-7H-thieno[2,3-b]pyridine-4,6-dione]
C (C≧75%) | O=C1Nc2sc(Cl)c(-c3ccccc3)c2C(=O)C1(F)c1ccccc1 (centres unmarked) [No 20, 2-chloro-5-fluoro-3,5-diphenyl-7H-thieno[2,3-b]pyridine-4,6-dione]
A (0%<A<50%) | Cc1ccc(-c2csc3c2C(=O)C(C)(c2ccc(O)cc2)C(=O)N3)c(O)c1F (centres unmarked) [No 24, 3-(3-fluoro-2-hydroxy-4-methyl-phenyl)-5-(4-hydroxy-phenyl)-5-methyl-7H-thieno[2,3-b]pyridine-4,6-dione]
C (C≧75%) | O=C1Nc2scc(-c3ccc(F)cc3O)c2C(=O)C1(F)c1ccccc1 (centres unmarked) [No 25, 5-fluoro-3-(4-fluoro-2-hydroxy-phenyl)-5-phenyl-7H-thieno[2,3-b]pyridine-4,6-dione]
A (0%<A<50%) | CC1(c2ccccc2)C(=O)Nc2sc(Cl)c(-c3ccc(F)cc3)c2C1=O (centres unmarked) [No 26, 2-chloro-3-(4-fluorophenyl)-5-methyl-5-phenyl-7H-thieno[2,3-b]pyridine-4,6-dione]
A (0%<A<50%) | CC1(c2cccc(F)c2)C(=O)Nc2sc(Cl)c(-c3ccccc3)c2C1=O (centres unmarked) [No 27, 2-chloro-5-(3-fluorophenyl)-5-methyl-3-phenyl-7H-thieno[2,3-b]pyridine-4,6-dione]
A (0%<A<50%) | CC1(c2ccccc2F)C(=O)Nc2sc(Cl)c(-c3ccccc3)c2C1=O (centres unmarked) [No 28, 2-chloro-5-(2-fluorophenyl)-5-methyl-3-phenyl-7H-thieno[2,3-b]pyridine-4,6-dione]
C (C≧75%) | CC1(c2ccccc2)C(=O)Nc2sc(Cl)c(-c3cccc(F)c3)c2C1=O (centres unmarked) [No 29, 2-chloro-3-(3-fluorophenyl)-5-methyl-5-phenyl-7H-thieno[2,3-b]pyridine-4,6-dione]
A (0%<A<50%) | CC1(c2ccccc2)C(=O)Nc2sc(Cl)c(-c3ccccc3F)c2C1=O (centres unmarked) [No 30, 2-chloro-3-(2-fluorophenyl)-5-methyl-5-phenyl-7H-thieno[2,3-b]pyridine-4,6-dione]
A (0%<A<50%) | Cc1ccc(C2(C)C(=O)Nc3sc(Cl)c(-c4ccccc4)c3C2=O)cc1 (centres unmarked) [No 31, 2-chloro-5-methyl-3-phenyl-5-(p-tolyl)-7H-thieno[2,3-b]pyridine-4,6-dione]
A (0%<A<50%) | CC1(c2ccc(F)cc2)C(=O)Nc2sc(Cl)c(-c3ccccc3)c2C1=O (centres unmarked) [No 32, 2-chloro-5-(4-fluorophenyl)-5-methyl-3-phenyl-7H-thieno[2,3-b]pyridine-4,6-dione]
A (0%<A<50%) | Cc1cccc(C2(C)C(=O)Nc3sc(Cl)c(-c4ccccc4)c3C2=O)c1 (centres unmarked) [No 33, 2-chloro-5-methyl-5-(m-tolyl)-3-phenyl-7H-thieno[2,3-b]pyridine-4,6-dione]

Continued, compound first:

Compound | Activity: Ratio between the % of control (basal activity) of compound of formula (1) at 30 μM and the % of control (basal activity) of AMP (natural substrate) at 200 μM
2,5-difluoro-3-(2-naphthyl)-5-phenyl-7H-thieno[2,3-b]pyridine-4,6-dione [No 162] | C (C≧75%)
2-chloro-5-(3-methoxyphenyl)-5-methyl-3-(p-tolyl)-7H-thieno[2,3-b]pyridine-4,6-dione [No 209] | A (0%<A<50%)
2-chloro-5-fluoro-3-(5-fluoro-2-hydroxy-phenyl)-5-phenyl-7H-thieno[2,3-b]pyridine-4,6-dione [No 221] | C (C≧75%)
2-chloro-5-methyl-3,5-bis(p-tolyl)-7H-thieno[2,3-b]pyridine-4,6-dione [No 154] | A (0%<A<50%)
5-fluoro-3-(2-naphthyl)-5-phenyl-7H-thieno[2,3-b]pyridine-4,6-dione [No 161] | C (C≧75%)
CCOc1c(F)ccc(-c2c(Cl)sc3c2C(=O)C(C)(c2ccccc2)C(=O)N3)c1OC (centres unmarked) [No 12, 2-chloro-3-(3-ethoxy-4-fluoro-2-methoxy-phenyl)-5-methyl-5-phenyl-7H-thieno[2,3-b]pyridine-4,6-dione] | A (0%<A<50%)
COc1c(-c2c(Cl)sc3c2C(=O)C(C)(c2ccccc2)C(=O)N3)ccc(F)c1F (centres unmarked) [No 13, 2-chloro-3-(3,4-difluoro-2-methoxy-phenyl)-5-methyl-5-phenyl-7H-thieno[2,3-b]pyridine-4,6-dione] | A (0%<A<50%)
COc1ccc(C2(C)C(=O)Nc3sc(Cl)c(-c4ccc(F)cc4O)c3C2=O)cc1 (centres unmarked) [No 15, 2-chloro-3-(4-fluoro-2-hydroxy-phenyl)-5-(4-methoxy-phenyl)-5-methyl-7H-thieno[2,3-b]pyridine-4,6-dione] | A (0%<A<50%)
CCOc1ccc(C2(C)C(=O)Nc3scc(-c4ccc(C)cc4F)c3C2=O)cc1 (centres unmarked) [No 17, 5-(4-ethoxyphenyl)-3-(2-fluoro-4-methyl-phenyl)-5-methyl-7H-thieno[2,3-b]pyridine-4,6-dione] | A (0%<A<50%)
CCOc1ccc(C2(C)C(=O)Nc3sc(C)c(-c4ccc(F)c(C)c4O)c3C2=O)cc1 (centres unmarked) [No 19, 5-(4-ethoxyphenyl)-3-(4-fluoro-2-hydroxy-3-methyl-phenyl)-2,5-dimethyl-7H-thieno[2,3-b]pyridine-4,6-dione] | A (0%<A<50%)
CCOc1ccc(C2(C)C(=O)Nc3scc(-c4ccc(Cl)cc4OC)c3C2=O)cc1 (centres unmarked) [No 21, 3-(4-chloro-2-methoxy-phenyl)-5-(4-ethoxyphenyl)-5-methyl-7H-thieno[2,3-b]pyridine-4,6-dione] | A (0%<A<50%)
CCOc1ccc(C2(C)C(=O)Nc3sc(Cl)c(-c4ccc(C)cc4F)c3C2=O)cc1 (centres unmarked) [No 22, 2-chloro-5-(4-ethoxyphenyl)-3-(2-fluoro-4-methyl-phenyl)-5-methyl-7H-thieno[2,3-b]pyridine-4,6-dione] | B (50%≦B<75%)
CCOc1ccc(C2(C)C(=O)Nc3scc(-c4ccc(C)c(F)c4O)c3C2=O)cc1 (centres unmarked) [No 23, 5-(4-ethoxyphenyl)-3-(3-fluoro-2-hydroxy-4-methyl-phenyl)-5-methyl-7H-thieno[2,3-b]pyridine-4,6-dione] | A (0%<A<50%)
